Experimental data: PubChem BioAssay AID1963446 (Molecular Pharmacology Branch, DTP, NCI, 2024)

Tested on: 993429-296-R-J1-PDC complex spheroid growth, percent test/control
Experiment: Anticancer human tumor 993429-296-R-J1-PDC patient-derived uterine sarcoma cell line growth inhibition [Asc]
Conditions: for IC50: curve of first compound; for viability, T/C: stronger effect = lower value
Method in brief: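 Complex spheroids combining tumor cells with HUVEC endothelial cells and human MSCs, at 37 degrees C, 5% CO2; agents tested alone or combined, half-log dilutions from at or near clinical Cmax, or 10 microM if Cmax unknown.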
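Note: spheroids exposed to compounds for seven days.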

CNC(C)C(=O)NC1CN(S(=O)(=O)c2cccc(S(=O)(=O)N3CCC4CCC(C(=O)NC(c5ccccc5)c5ccccc5)N4C(=O)C(NC(=O)C(C)NC)C3)c2)CCC2CCC(C(=O)NC(c3ccccc3)c3ccccc3)N2C1=O (configuration not stated) + CCN1C(C(=O)NC23CCC(C(=O)O)(CC2)CC3)C(c2cccc(Cl)c2F)C2(C(=O)Nc3cc(Cl)ccc32)C12CCCCC2
IC50 (second compound 0.03 µM): > 1 µM
IC50 (second compound 0.0949 µM): > 1 µM
IC50 (second compound 0.3 µM): > 1 µM
IC50 (second compound 0.949 µM): > 1 µM
IC50 (second compound 3 µM): 0.287 µM
viability, T/C (second compound 0.03 µM, first compound 0.00316 µM): 71.4%
viability, T/C (second compound 0.03 µM, first compound 0.01 µM): 62.7%
viability, T/C (second compound 0.03 µM, first compound 0.0316 µM): 57.5%
viability, T/C (second compound 0.03 µM, first compound 0.1 µM): 57%
viability, T/C (second compound 0.03 µM, first compound 0.316 µM): 58%
viability, T/C (second compound 0.03 µM, first compound 1 µM): 51.7%
viability, T/C (second compound 0.0949 µM, first compound 0.00316 µM): 61.2%
viability, T/C (second compound 0.0949 µM, first compound 0.01 µM): 69.8%
viability, T/C (second compound 0.0949 µM, first compound 0.0316 µM): 65%
viability, T/C (second compound 0.0949 µM, first compound 0.1 µM): 68.7%
viability, T/C (second compound 0.0949 µM, first compound 0.316 µM): 53.7%
viability, T/C (second compound 0.0949 µM, first compound 1 µM): 57.3%
viability, T/C (second compound 0.3 µM, first compound 0.00316 µM): 64.9%
viability, T/C (second compound 0.3 µM, first compound 0.01 µM): 79.5%
viability, T/C (second compound 0.3 µM, first compound 0.0316 µM): 66.3%
viability, T/C (second compound 0.3 µM, first compound 0.1 µM): 53.9%
viability, T/C (second compound 0.3 µM, first compound 0.316 µM): 62.6%
viability, T/C (second compound 0.3 µM, first compound 1 µM): 59.4%
viability, T/C (second compound 0.949 µM, first compound 0.00316 µM): 77.3%
viability, T/C (second compound 0.949 µM, first compound 0.01 µM): 64.3%
viability, T/C (second compound 0.949 µM, first compound 0.0316 µM): 62.7%
viability, T/C (second compound 0.949 µM, first compound 0.1 µM): 65.2%
viability, T/C (second compound 0.949 µM, first compound 0.316 µM): 55.9%
viability, T/C (second compound 0.949 µM, first compound 1 µM): 61.1%
viability, T/C (second compound 3 µM, first compound 0.00316 µM): 77.9%
viability, T/C (second compound 3 µM, first compound 0.01 µM): 66.8%
viability, T/C (second compound 3 µM, first compound 0.0316 µM): 59.2%
viability, T/C (second compound 3 µM, first compound 0.1 µM): 48.3%
viability, T/C (second compound 3 µM, first compound 0.316 µM): 53.5%
viability, T/C (second compound 3 µM, first compound 1 µM): 47.7%

O=C(c1ccc(F)c(F)c1Nc1ccc(I)cc1F)N1CC(O)([C@@H]2CCCCN2)C1 + CNC(C)C(=O)NC1CN(S(=O)(=O)c2cccc(S(=O)(=O)N3CCC4CCC(C(=O)NC(c5ccccc5)c5ccccc5)N4C(=O)C(NC(=O)C(C)NC)C3)c2)CCC2CCC(C(=O)NC(c3ccccc3)c3ccccc3)N2C1=O
IC50 (second compound 0.01 µM): 0.0565 µM
IC50 (second compound 0.0316 µM): 0.0309 µM
IC50 (second compound 0.1 µM): 0.0272 µM
IC50 (second compound 0.316 µM): < 0.00316 µM
IC50 (second compound 1 µM): 0.0114 µM
viability, T/C (second compound 0.01 µM, first compound 0.00316 µM): 65.5%
viability, T/C (second compound 0.01 µM, first compound 0.01 µM): 64.5%
viability, T/C (second compound 0.01 µM, first compound 0.0316 µM): 50.4%
viability, T/C (second compound 0.01 µM, first compound 0.1 µM): 48.9%
viability, T/C (second compound 0.01 µM, first compound 0.316 µM): 25.3%
viability, T/C (second compound 0.01 µM, first compound 1 µM): 1.67%
viability, T/C (second compound 0.0316 µM, first compound 0.00316 µM): 61.7%
viability, T/C (second compound 0.0316 µM, first compound 0.01 µM): 51.2%
viability, T/C (second compound 0.0316 µM, first compound 0.0316 µM): 55.2%
viability, T/C (second compound 0.0316 µM, first compound 0.1 µM): 33.4%
viability, T/C (second compound 0.0316 µM, first compound 0.316 µM): 19.1%
viability, T/C (second compound 0.0316 µM, first compound 1 µM): 1.07%
viability, T/C (second compound 0.1 µM, first compound 0.00316 µM): 56.4%
viability, T/C (second compound 0.1 µM, first compound 0.01 µM): 57.5%
viability, T/C (second compound 0.1 µM, first compound 0.0316 µM): 50.7%
viability, T/C (second compound 0.1 µM, first compound 0.1 µM): 29.6%
viability, T/C (second compound 0.1 µM, first compound 0.316 µM): 14.9%
viability, T/C (second compound 0.1 µM, first compound 1 µM): 1.5%
viability, T/C (second compound 0.316 µM, first compound 0.00316 µM): 48.3%
viability, T/C (second compound 0.316 µM, first compound 0.01 µM): 45.4%
viability, T/C (second compound 0.316 µM, first compound 0.0316 µM): 50.7%
viability, T/C (second compound 0.316 µM, first compound 0.1 µM): 34.1%
viability, T/C (second compound 0.316 µM, first compound 0.316 µM): 11%
viability, T/C (second compound 0.316 µM, first compound 1 µM): 0.99%
viability, T/C (second compound 1 µM, first compound 0.00316 µM): 54.8%
viability, T/C (second compound 1 µM, first compound 0.01 µM): 48.4%
viability, T/C (second compound 1 µM, first compound 0.0316 µM): 43.6%
viability, T/C (second compound 1 µM, first compound 0.1 µM): 38.5%
viability, T/C (second compound 1 µM, first compound 0.316 µM): 12.7%
viability, T/C (second compound 1 µM, first compound 1 µM): 0.99%

Cc1c(S(C)(=O)=O)c(-c2cc(F)cc(N3CCN(c4ccc(NS(=O)(=O)c5ccc(NC(CCN6CCC(C(=O)OCCCP(=O)(O)O)CC6)CSc6ccccc6)c(S(=O)(=O)C(F)(F)F)c5)cc4)CC3)c2)c(-c2ccc(Cl)cc2)n1C(C)C (configuration not stated)
viability, T/C (compound 0.316 µM): 60.7% [middle of 14 runs]
viability, T/C (compound 3.16 µM): 49.6% [middle of 14 runs]
